# Measurements taken from ChEMBL document CHEMBL3507680, “University of Dundee, Gates Library screen for HepG2 cell viability”.
# Assay: Human HepG2 cell viability assay in 384 well format
# Assay type: toxicity, cell-based
# Set-up: dose 125 nL, time 70.5 hour; cytotoxicity at 70.5 h: concentration not given beside the values
# Settings: HepG2 cells, read-out: Inhibition
row,Structure (SMILES),cytotoxicity at 70.5 h
1,Cc1cccc(-c2nc(CN3CCc4cncnc4C3)no2)c1,-4.67%
2,Cc1cc(C)n(CC2CCCN2C(=O)CCCNc2ncccn2)n1 (stereo not drawn),-0.613%
3,COCCN(CCOC)c1nc2c(s1)c(C)nn2C,-13.8%
4,N#Cc1cccc(N2CCCC(CO)(CCOc3ccccc3)C2)n1 (stereo not drawn),8.55%
5,O=C(NCCNc1ncccn1)c1ccc(Cl)s1,-5.84%
6,CN1N=C(C(=O)N2CCCC(CCc3cccc(F)c3)C2)CCC1=O (stereo not drawn),-3.78%
7,Cc1cnn(C2CN(CC(=O)Nc3cccnc3)C2)c1,-9.68%
8,CCS(=O)(=O)N(C)C1CCN(c2cccc(F)c2C(C)=O)CC1,-4.38%
9,COCCCNC(=O)CCn1ncc2c(Cl)cccc21,-7.64%
10,CS(=O)(=O)c1nccn1Cc1ccncc1,-4.41%
11,CCC(O)CN1CCN(C(=O)C2(c3ccc(C)c(OC)c3)CC2)CC1 (stereo not drawn),4.09%
12,CN(C(=O)C(c1c(F)cccc1Cl)N(C)C)c1nccs1 (stereo not drawn),3.15%
13,CCn1cc(C(=O)N2CCCC(c3nccs3)C2)cn1 (stereo not drawn),-2.34%
14,CC(C)c1cc(C(=O)N2CCN(c3ccc(F)c(Cl)c3)CC2)n(C)n1,-4.92%
15,COc1ccc2c(c1)C1(CCN(Cc3cccnc3)CC1)N(C)CC2,-1.98%
16,CC(C(=O)N1CCn2cncc2C1)N1CCCC1 (stereo not drawn),-0.791%
17,Cn1ccnc1C1(O)CCN(C(=O)Cc2ccccc2)CC1,-6.34%
18,O=C(N[C@@H]1CN(c2ncc(F)cn2)[C@@H]2COC[C@@H]21)c1cscn1,-13.8%
19,COCc1nc(C(=O)NS(=O)(=O)c2cc(Br)ccc2C)cs1,1.93%
20,Oc1ccc([C@H]2Oc3cc(O)cc(O)c3C[C@@H]2O)cc1,-11.9%
21,COc1cc(C2(C(=O)N3CCN(CC(C)(C)O)CC3)CC2)ccc1C,-0.73%
22,Cn1cc(-c2ncc(C(=O)NCCCn3ccccc3=O)s2)cn1,-10.1%
23,Cc1cc(CNC(=O)C2CCC(=O)N(Cc3ccccc3F)C2)on1 (stereo not drawn),-2.07%

row,Structure (SMILES),cytotoxicity at 70.5 h
1,CCOC1CCN(C(=O)c2cc(-c3ccc(Cl)cc3)on2)CC1,-5.56%
2,Cc1ccsc1C(=O)N1CC(C(=O)NCC2CC2)C2(CCOCC2)C1 (stereo not drawn),7.19%
3,CC(NC(=O)NCCNc1cnccn1)c1cccs1 (stereo not drawn),-6.24%
4,CCCc1nc(N2CC[C@@H](c3ccc4c(c3)OCO4)[C@H](O)C2)no1,-9.08%
5,CS(=O)(=O)N1CCC(c2cncc(Cl)n2)CC1,27.2%
6,CN(C)C(=O)N1CCN(C(=O)c2ccccc2)CC2(CNC(=O)C2)C1 (stereo not drawn),-1.67%
7,O=C(CN1CCc2c(ncn2C2CC2)C1)NC1CC1,-23.8%
8,c1cnc(N2CCC(c3nccn3CC3CC3)CC2)nc1,-2.28%
9,CN(CCc1ccncc1)C(=O)c1sccc1OC(F)F,-10.6%
10,COCCN1CCCC2(CCN(c3nccc4ccccc34)C2)C1=O (stereo not drawn),11.2%
11,CCOc1ccc(Cl)c(C(=O)NCc2ccc(C(=O)NC)cc2)n1,4.62%
12,CCn1ncc2c1C(COCC1CC1)CN(c1ccc(C)nn1)C2 (stereo not drawn),-10.4%
13,O=C(C1CCOC1)N1C[C@H]2CN(Cc3ccccn3)C[C@H]2C1 (stereo partly drawn),-18%
14,O=C(c1ccnnc1)N1C[C@H](Oc2ccccn2)[C@H]2OCCC[C@H]21,-8.72%
15,O=C1CC2(CCN(C(=O)c3ccc4c(c3)CCCO4)C2)C(=O)N1 (stereo not drawn),2.37%
16,CC(=O)N1CCC2(C1)c1ccccc1S(=O)(=O)N2Cc1ccccc1 (stereo not drawn),3.49%
17,COc1cccc2c1OCC(NC(=O)NC1CCN(C3CC3)CC1)C2 (stereo not drawn),-5.93%
18,CCn1ncc(C(=O)NCCc2nc(-c3ccc(C)cc3)n[nH]2)c1C,-0.645%
19,CCCn1nc2c(cc1=O)CN(Cc1ncc(C(C)(C)C)o1)CC2,-4.85%
20,NCC(=O)N1CCC2(CC1)CN(C(=O)Cc1ccc(Cl)cc1)CCO2,-14.9%
21,Cc1nc(O)cc(C2CCCN(Cc3c(Cl)cncc3Cl)C2)n1 (stereo not drawn),-8.65%
22,Cc1cnn(CC2CN(Cc3nnc(C(C)C)o3)CCO2)c1 (stereo not drawn),-6.07%
23,CN(Cc1cc(-c2cccnc2)no1)C(=O)c1cccn1C,0.783%

row,Structure (SMILES),cytotoxicity at 70.5 h
1,Cn1ccnc1C(=O)N1CCC2(CCN2CC2CC2)C1 (stereo not drawn),9.69%
2,CC(C)(C)c1ncc(C(=O)NCCSc2ccccn2)c(O)n1,30.9%
3,CCNc1c(NC(=O)NC(C)C)c(=O)oc2ccccc12,-8.94%
4,COc1ccc(Br)c(C(=O)NCC2CCN(S(=O)(=O)C3CC3)CC2)c1,16.8%
5,CN(C)C1CC2(CCN(C(=O)c3csnn3)CC2)c2ccccc21 (stereo not drawn),-0.291%
6,CC(C)CC(=O)N1CCC2(CC1)OC(C(N)=O)Cn1ccnc12 (stereo not drawn),-8.87%
7,CCN(CC)CCCC(C)NC(=O)c1ccccc1-n1cccn1 (stereo not drawn),-9.46%
8,O=C(O)c1cncc(Cc2ccc(F)cc2)c1,-7.6%
9,Fc1cccnc1O[C@H]1CN(Cc2ccoc2)[C@@H]2CCCO[C@H]12,-4.66%
10,N#CCC(=O)NCc1nnc2n1CCN(Cc1cccs1)C2,-6.57%
11,CCOCCCNC(=O)C1(C)CCC(=O)N1c1ccccc1F (stereo not drawn),-3.95%
12,COc1ccc(-c2cnc3n2CCNC32CCN(S(C)(=O)=O)CC2)cc1,-6.19%
13,COc1cc(CNC(c2ccccc2)c2nccn2C)cc(OC)c1 (stereo not drawn),0.143%
14,CC(=O)N1CCc2nnc(C3CCCN3CC3CCCCC3)n2CC1 (stereo not drawn),-6.06%
15,CCCN(Cc1cccnc1)C(=O)C1CCN(Cc2ccco2)CC1,-2.7%
16,O=C1N(c2ccc(Br)cc2)Cc2nc(=O)[nH]n21,-16.4%
17,N#Cc1nccnc1N1CCC(COCc2ccccc2)C1 (stereo not drawn),-4.27%
18,COCCN1C[C@@H]2CN(Cc3ccc(F)cc3)C[C@@H]2C1=O,-9.05%
19,COCCCNC(=O)NCc1nc(C)c(C)o1,-7.01%
20,Cc1nc2cc(C(=O)N3CCCC(n4ccnc4)C3)ccc2n1C (stereo not drawn),-2.44%
21,O=C(CCn1ccc2cc(Br)ccc21)NCc1ccc(C(=O)O)cc1,-5.77%
22,Cc1nn(C)c(C)c1CN1CCN(CC2(O)CCCN(C)C2)CC1 (stereo not drawn),-10.5%
23,Cc1cccc(N2CCN(C(=O)NC(C)c3nncn3C)CC2)c1C (stereo not drawn),-3.82%

row,Structure (SMILES),cytotoxicity at 70.5 h
1,Cn1ncc2c1NC(=O)CC2c1cc(Cl)ccc1F (stereo not drawn),47.5%
2,COCCN(CCOC)C(=O)NC1CCCCC1,-4.8%
3,CCOCCn1nc(C)cc1C(=O)N1CCCC[C@H](N(C)C)C1,-4.33%
4,COc1cc(C(C)NCc2scnc2C)ccc1SC(F)F (stereo not drawn),-9.67%
5,Cc1nn(CCO)c(C)c1CNC1CCOc2ccccc21 (stereo not drawn),-2.7%
6,CN(C)C(=O)[C@@H]1CCO[C@@H]2CCN(CCc3ccccc3)C[C@@H]21,1.43%
7,Cc1c(C(=O)NCCCS(C)(=O)=O)cccc1-c1ccccn1,7.88%
8,CCN1CC(C(=O)N(C)Cc2cc3cc(F)ccc3[nH]2)CC1=O (stereo not drawn),-0.954%
9,Cc1ccc(C(=O)NC2CCCN(CC(N)=O)C2)c(=O)[nH]1 (stereo not drawn),-7.85%
10,CC(C)OCCCNC(=O)CS(=O)(=O)Cc1ccc(C(C)C)cc1,-0.615%
11,CC(=O)N1N=C(c2ccccc2)OC1C(=O)NCCN(C(C)C)C(C)C (stereo not drawn),-6.17%
12,CC(Cn1cccn1)NS(=O)(=O)Cc1ccc(F)cc1 (stereo not drawn),5.43%
13,Cc1nc(C(C)(C)NCc2ncc(C3CC3)o2)sc1C,2.05%
14,O=C1N[C@@H]2CCN(C(=O)C3CC3)[C@@H]2C(=O)N1c1ccccc1,-10.7%
15,COc1ccc2c(c1)OCC(C(=O)NCc1nc3c(s1)CCCC3)C2 (stereo not drawn),-8.87%
16,CC(C)CCC(=O)N1CCN(C(=O)c2ccc3nccn3c2)CC1,15.2%
17,N#Cc1cccc(CS(=O)(=O)NC(Cc2ccccc2)C(N)=O)c1 (stereo not drawn),-13.1%
18,COc1ccccc1CN1C[C@@H]2COC[C@]2(COc2cccnc2)C1,-116%
19,Cc1n[nH]c(C)c1C1COCCN1C(=O)c1n[nH]c2ccccc12 (stereo not drawn),12.3%
20,CCC(Nc1nc(C(C)C)nc2c1cnn2C)c1ccncc1 (stereo not drawn),-7.7%
21,CC(C)Cc1cc(C(=O)NCC(O)c2ccc(F)cc2)n(C)n1 (stereo not drawn),-16.2%
22,CCn1ccnc1CN1CCN(C(C)C)CC1C (stereo not drawn),-3.75%
23,O=C(NCC1CCOC1)c1cc(-c2cccc(Cl)c2)on1 (stereo not drawn),-5.03%

row,Structure (SMILES),cytotoxicity at 70.5 h
1,Cc1nc(C)c(C(=O)NCCNC(=O)c2ccc(F)cc2F)s1,-6.45%
2,CCC(C)N(Cc1cccnc1)C(=O)c1ccc(NS(=O)(=O)CC)cc1 (stereo not drawn),-1.92%
3,O=C1CC(c2ccc(C(=O)O)cc2)c2ncn(-c3cccc(F)c3)c2N1 (stereo not drawn),-24.3%
4,CCOC(=O)CNC(=O)c1cc2n(n1)CCCO2,-11.8%
5,CC(C)N1[C@H](CN2CCCC2)C[C@@H]2CN(C(=O)c3ccoc3)CC[C@@H]21,1.33%
6,COCCC(=O)N1C[C@@H](O)[C@H](N2CCN(c3ccccc3)CC2)C1,-2.33%
7,CCCC1CCCN(C(=O)CNC(=O)c2ccoc2C)CC1 (stereo not drawn),-18.9%
8,CCc1noc(C2CCCCN2C(=O)c2ccc3c(c2)OCO3)n1 (stereo not drawn),-4.04%
9,CCOC(C)c1noc(CN2CCN(Cc3cccnc3)CC2)n1 (stereo not drawn),34.3%
10,CC(CCc1ccc(F)c(F)c1)NS(=O)(=O)Cc1ccon1 (stereo not drawn),20.5%
11,COCCOc1ccccc1NC(C)C(=O)NC(=O)NC(C)(C)C (stereo not drawn),-15.9%
12,c1ccc(CN2CCCC3(CCN(Cc4cccs4)C3)C2)nc1 (stereo not drawn),-7.54%
13,Cc1ccc(OCC(=O)NS(=O)(=O)c2cccnc2)cc1C,23.3%
14,COC(=O)CCC(=O)N1CCC2(CN(Cc3ccccc3)C2)C1,21%
15,O=C(NCC(F)(F)F)C1CN(C(=O)c2cnccn2)C1,-9.42%
16,CN(Cc1ccc(Cl)cc1)S(=O)(=O)N(C)Cc1cnn(C)c1,-1.12%
17,O=C(NCc1ccnc(O)c1)NCC1CCCC1,-1.59%
18,O=C(NCc1nn(-c2ccccc2)c2c1CCC2)NCC1COCCO1 (stereo not drawn),-9.01%
19,Cc1oc(C)c(C(=O)NCc2cccnc2N(C)C)c1C,-12.5%
20,O=C(NC1CC1)c1cc(C2CCCN(Cc3ccccn3)C2)no1 (stereo not drawn),-13.3%
21,CCN(CCN1CCCCCC1)C(=O)c1cnc(-c2cccnc2)nc1,-2.81%
